The record followed here is ChEMBL document CHEMBL4425082, “Antimalarial Chemotherapy: Natural Product Inspired Development of Preclinical and Clinical Candidates with Diverse Mechanisms of Action” (J Med Chem, 2016).

Data set [1] deals with Plasmodium falciparum. Put plainly: Antimalarial activity against Plasmodium falciparum FCR 3TC after 48 hrs. In kind it is functional, organism-based.
Data set [2] concerns Plasmodium berghei. Put plainly: Antimalarial activity against GFP-transfected Plasmodium berghei ANKA infected in mouse assessed as reduction in parasitemia at 30 mg/kg, po administered on day 1 post infection measured on day 3 post infection. It counts as functional. Also on record: scale not given: the % may be the effect or the level left.
A short description of data set [3]: Oral bioavailability in rat at 3 mg/kg. In kind it is ADME, organism-based. Particulars: in vivo.
Data set [4] concerns Plasmodium vinckei. The data set is described as follows: Antimalarial activity against Plasmodium vinckei infected in po dosed mouse assessed as reduction in parasitemia administered tid by 4-day suppression test. It counts as functional. Particulars: 96 h.
Data set [5] is described as follows: Oral bioavailability in rat. It counts as ADME, organism-based. Particulars: in vivo.
In data set [6] the test system is Plasmodium vinckei. The data set is described as follows: Antimalarial activity against Plasmodium vinckei infected in ip dosed mouse assessed as reduction in parasitemia administered tid by 4-day suppression test. It counts as functional. Particulars: 96 h.
Data set [7] relates to Plasmodium falciparum. The data set is described as follows: Antimalarial activity against Plasmodium falciparum Dd2 assessed as reduction in parasite viability by [3H]-hypoxanthine incorporation assay. In kind it is functional, organism-based.
For data set [8], the system named is Plasmodium falciparum. The data set is described as follows: Antimalarial activity against Plasmodium falciparum 3D7 after 96 hrs. In kind it is functional, organism-based. Conditions: 3D7, 96 h.
In data set [9] the test system is Plasmodium falciparum. The data set is described as follows: Antimalarial activity against Plasmodium falciparum 3D7 after 48 hrs. Particulars: 3D7, 48 h. It counts as functional, organism-based.
Data set [10] has as its system Plasmodium falciparum. Put plainly: Antimalarial activity against Plasmodium falciparum W2 after 48 hrs. It counts as functional, organism-based. Particulars: W2, 48 h.
Data set [11] can be described thus: Therapeutic index, ratio of IC50 for mouse/rat NG108 cells to IC50 chloroquine-resistant Plasmodium falciparum W2. It counts as toxicity. Conditions: read-out: Ratio IC50.
Data set [12] has as its system Plasmodium falciparum. The data set is described as follows: Antimalarial activity against chloroquine-resistant Plasmodium falciparum W2 by [3H]-hypoxanthine incorporation assay. It counts as functional, organism-based.
Data set [13] in a line: Therapeutic index, ratio of IC50 for mouse J774 cells to IC50 chloroquine-resistant Plasmodium falciparum W2. It counts as toxicity. Conditions: read-out: Ratio IC50.
Data set [14] has as its system Plasmodium berghei. The data set is described as follows: Antimalarial activity against Plasmodium berghei infected in po dosed mouse erythrocyte administered qd for 8 days by Giemsa staining based microscopic analysis. It counts as functional. Conditions: 192 h.
In another data set the test system is Plasmodium yoelii. The data set is described as follows: Antimalarial activity against blood stage Plasmodium yoelii infected in mouse administered qd through oral gavage for 4 days. It counts as functional. Conditions: 96 h.
Data set [15] has as its system Plasmodium falciparum. Put plainly: Antimalarial activity against Plasmodium falciparum 3D7. It counts as functional, organism-based.
In data set [16] the test system is Plasmodium falciparum. Put plainly: Antimalarial activity against atovaquone-resistant Plasmodium falciparum TM90C2B. It counts as functional, organism-based.
The subject of data set [17] is Plasmodium berghei. Put plainly: Antimalarial activity against blood stage Plasmodium berghei infected in mouse administered qd through oral gavage for 4 days. Conditions: 96 h.
Data set [18] is described as follows: Inhibition of Plasmodium falciparum cytochrome bc1 expressed in HEK293 cells by spectrophotometric analysis. It counts as cell-based.
A short description of data set [19]: Inhibition of Plasmodium falciparum NDH2 expressed in HEK293 cells by spectrophotometric analysis. It counts as cell-based.
Data set [20] is described as follows: Half life in human. It counts as ADME.

The term IC50 denotes the concentration needed to halve the response being measured. In the data set on Plasmodium falciparum [1], `CC[C@H]1OC(=O)[C@H](C)[C@@H](O[C@H]2C[C@@](C)(OC)[C@@H](O)[C@H](C)O2)[C@H](C)[C@@H](O[C@@H]2O[C@H](C)C[C@H](N(C)C)[C@H]2O)[C@](C)(O)C[C@@H](C)C(=O)[C@H](C)[C@@H](O)[C@]1(C)O` [ERYTHROMYCIN] yielded an IC50 of 68000 nM.
As usually defined, the bioavailability is the share of a dose that reaches the circulation, judged against a reference dose that is usually intravenous. Turning to `CC(C)(N)CNC(=O)C[C@H]1CC[C@]2(CC1)OO[C@]1(O2)C2CC3CC(C2)CC1C3` [OZ277], the Activity with Plasmodium berghei [2] is given as 99%. Also, the bioavailability in [3] stood at 13%.
As for `O=CN(O)CCCP(=O)(O)O` [FOSMIDOMYCIN], the ED90 in the data set with Plasmodium vinckei [4] amounted to 20 mg/kg; in the data set with Plasmodium vinckei [6], 5 mg/kg. Besides, in data set [5], the bioavailability amounted to 30%. Further, the IC50 with Plasmodium falciparum [7] was 290 nM.
With `CCC[C@@H]1C[C@@H](C(=O)N[C@@H]([C@H]2O[C@H](SC)[C@H](O)[C@@H](O)[C@H]2O)[C@H](C)Cl)N(C)C1` [CLINDAMYCIN], the IC50 in the data set with Plasmodium falciparum [8] was 450 nM; in the data set with Plasmodium falciparum [9], greater than 10000 nM; in the data set with Plasmodium falciparum [10], greater than 10000 nM.
The compound `c1cc([C@H]2CC[C@]3(CC2)OO[C@]2(O3)C3CC4CC(C3)CC2C4)ccc1OCCN1CCOCC1` [ARTEFENOMEL] returned a bioavailability in [3] of 76%.
As a reminder, the ED50 is the dose at which the effect has come halfway, by size or by number of responders. In the case of `O=C(C[C@H]1NCCC[C@@H]1O)Cn1cnc2ccccc2c1=O`, the selectivity ratio in [11] and in data set [13] was 3 throughout. Besides, in the data set with Plasmodium falciparum [12], the midpoint of inhibition, the IC50, lay at 2.5 nM. This compound also came in with a 50% effective dose (ED50) in the data set with Plasmodium berghei [14] of 2.3 mg/kg.
Take `COc1cc2[nH]c(C)c(-c3ccc(Oc4ccc(OC(F)(F)F)cc4)cc3)c(=O)c2cc1Cl`: in the data set with Plasmodium yoelii, the ED50 came out at 0.1 mg/kg. In addition, the ED90 in the data set on Plasmodium yoelii came out at 0.15 mg/kg. Moreover, the figures for the IC50 in the data set with Plasmodium falciparum [15] and with Plasmodium falciparum [16] were 5 nM and 3 nM, respectively.
In the case of `Cc1c(-c2ccc(-c3ccc(OC(F)(F)F)cc3)nc2)[nH]c2ccccc2c1=O`, in the data set with Plasmodium berghei [17], the ED50 came out at 1.8 mg/kg and the ED90 amounted to 4.7 mg/kg. In [18], this compound came in with an IC50 of 15 nM. The IC50 in data set [19] was 14 nM.
As a reminder, the half-life is the time needed for the level to fall by half in the phase considered. With `CC[C@H]1OC(=O)[C@H](C)[C@@H](O[C@H]2C[C@@](C)(OC)[C@@H](O)[C@H](C)O2)[C@H](C)[C@@H](O[C@@H]2O[C@H](C)C[C@H](N(C)C)[C@H]2O)[C@](C)(O)C[C@@H](C)CN(C)[C@H](C)[C@@H](O)[C@]1(C)O` [AZITHROMYCIN], the half-life in [20] was 74 h. Also, the IC50 in the data set on Plasmodium falciparum [1] was determined as 6500 nM.
With `O=C1C(O)=C([C@H]2CC[C@H](c3ccc(Cl)cc3)CC2)C(=O)c2ccccc21` [ATOVAQUONE], the ED50 with Plasmodium yoelii amounted to 0.02 mg/kg. In the data set on Plasmodium yoelii, this compound yielded an ED90 of 0.04 mg/kg. Besides, the IC50 in [18] was 2 nM; in the data set on Plasmodium falciparum [15], 0.4 nM; in data set [19] it was greater than 10000 nM; in the data set with Plasmodium falciparum [16], greater than 10000 nM.
With `CC(=O)N(O)CCCP(=O)(O)O` [FR-900098], the IC50 in the data set with Plasmodium falciparum [7] stood at 90 nM.
